The assay deals with SKOV3 cells. Description: ZN-c3 dose response, percent cell density (cell titer glow), PPP2R1A siRNA vs scrambled control. It is filed as cell-based. To be noted: Homo sapiens, SK-OV-3, 72 h. As to the method:
FIG. 9 depicts the percent cell density of SKOV3 (an ovarian cancer cell line) cells after treatment with a 10-point dose response of ZN-c3 for 72 hours, comparing cells transfected with siRNA to PPP2R1A against those transfected with a scrambled control siRNA. Percent cell density is calculated using cell titer glow analysis. PPP2R1A siRNA transfected cells have approximately 2.7-fold increase in sensitivity to ZN-c3 (TABLE 5).
The effect of PPP2R1A knockdown on influencing cancer cell susceptibility to ZN-c3 was evaluated. Various cancer cell lines were transfected with PPP2R1A siRNA or control scrambled siRNA and the cells were treated with a 10 point dose response of ZN-c3 for 72 hours. Percent cell density was calculated using cell titer glow analysis. The PPP2R1A siRNA targeted the following bases Chr.19: 52189802-52226425. SiRNA transfection was started 48 hours prior to treatment with ZN-c3. The ZN-c3 dose response evaluation included ZN-c3 dosages at […].
An ovarian cell line SKOV3 was treated with PPP2R1A siRNA or control siRNA and transfected cells were assessed for sensitivity to ZN-c3 by measurement of reduction in percent cell density (FIG. 9). PPP2R1A siRNA mediated knockdown of PPP2R1A was evaluated by comparison of PPP2R1A expression in conditions treated with siCTRL and siPPPR12A (FIG. 10).
In general terms: In ATP-based viability assays light output follows the ATP content of the culture.

This passage reports EC50 results from patent US20250208149A1, “WEE1 COMPOUND FOR TREATING UTERINE SEROUS CARCINOMA” (Recurium IP Holdings, LLC, priority 2022, published 2025).

A word on the EC50: it is the concentration needed to bring the measured effect to its halfway point. The low end stands for a more potent agent, the high end for a less potent agent. Consider `C=CCn1c(=O)c2cnc(Nc3ccc(N4CCN(C)CC4)cc3)nc2n1-c1ccc2c(n1)[C@@](O)(CC)CC2` [ZN-c3, (R)-2-allyl-1-(7-ethyl-7-hydroxy-6,7-dihydro-5H-cyclopenta[b]pyridin-2-yl)-6-((4-(4-methylpiperazin-1-yl)phenyl)amino)-1,2-dihydro-3H-pyrazolo[3,4-d]pyrimidin-3-one], for which the EC50 by setting is: (siCTRL) 480 nM; (siPPP2R1A) 180 nM.
